PubChem BioAssay AID2060492 (Molecular Pharmacology Branch, DTP, NCI, 2025)

Test system: 695427-040-R-J1-PDC complex spheroids, viability percent T/C
Test: Anticancer human tumor 695427-040-R-J1-PDC patient-derived colon adenocarcinoma cell line growth inhibition [GQUAD]
Conditions: for IC50: curve of first compound; for viability, T/C: stronger effect = lower value
Method in brief: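 Viability of tumor cells grown as complex spheroids with endothelial and stromal cells, exposed to drug combinations. Top concentration at or near clinical Cmax (else 10 microM), diluted in half-log increments.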

[1] = second compound 0.0316 µM, first compound 0.0316 µM
[2] = second compound 0.0316 µM, first compound 0.1 µM
[3] = second compound 0.0316 µM, first compound 0.316 µM
[4] = second compound 0.0316 µM, first compound 1 µM
[5] = second compound 0.0316 µM, first compound 3.16 µM
[6] = second compound 0.0316 µM, first compound 10 µM
[7] = second compound 0.1 µM, first compound 0.0316 µM
[8] = second compound 0.1 µM, first compound 0.1 µM
[9] = second compound 0.1 µM, first compound 0.316 µM
[10] = second compound 0.1 µM, first compound 1 µM
[11] = second compound 0.1 µM, first compound 3.16 µM
[12] = second compound 0.1 µM, first compound 10 µM
[13] = second compound 0.316 µM, first compound 0.0316 µM
[14] = second compound 0.316 µM, first compound 0.1 µM
[15] = second compound 0.316 µM, first compound 0.316 µM
[16] = second compound 0.316 µM, first compound 1 µM
[17] = second compound 0.316 µM, first compound 3.16 µM
[18] = second compound 0.316 µM, first compound 10 µM
[19] = second compound 1 µM, first compound 0.0316 µM
[20] = second compound 1 µM, first compound 0.1 µM
[21] = second compound 1 µM, first compound 0.316 µM
[22] = second compound 1 µM, first compound 1 µM
[23] = second compound 1 µM, first compound 3.16 µM
[24] = second compound 1 µM, first compound 10 µM
[25] = second compound 3.16 µM, first compound 0.0316 µM
[26] = second compound 3.16 µM, first compound 0.1 µM
[27] = second compound 3.16 µM, first compound 0.316 µM
[28] = second compound 3.16 µM, first compound 1 µM
[29] = second compound 3.16 µM, first compound 3.16 µM
[30] = second compound 3.16 µM, first compound 10 µM
[31] = second compound 10 µM, first compound 0.0316 µM
[32] = second compound 10 µM, first compound 0.1 µM
[33] = second compound 10 µM, first compound 0.316 µM
[34] = second compound 10 µM, first compound 1 µM
[35] = second compound 10 µM, first compound 3.16 µM
[36] = second compound 10 µM, first compound 10 µM
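Further: spheroids exposed to compounds for seven days before readout.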

Question: Which results are given for C#Cc1c(F)ccc2cc(O)cc(-c3ncc4c(N5CC6CCC(C5)N6)nc(OCC56CCCN5CC(F)C6)nc4c3F)c12 (stereo unspecified) + Cc1cnc(CNC(=O)c2c(=O)c3ccc(N4CCCN(C)CC4)nc3n3c2sc2ccccc23)cn1?
Answer: IC50 (second compound 0.0316 µM): > 10 µM; IC50 (second compound 0.1 µM): > 10 µM; IC50 (second compound 0.316 µM): > 10 µM; IC50 (second compound 1 µM): > 10 µM; IC50 (second compound 3.16 µM): < 0.0316 µM; IC50 (second compound 10 µM): < 0.0316 µM; viability, T/C [1]: 103%; viability, T/C [2]: 94.4%; viability, T/C [3]: 87.1%; viability, T/C [4]: 73.2%; viability, T/C [5]: 76.9%; viability, T/C [6]: 65.4%; viability, T/C [7]: 110%; viability, T/C [8]: 69.8%; viability, T/C [9]: 85%; viability, T/C [10]: 71.5%; viability, T/C [11]: 71.4%; viability, T/C [12]: 58.7%; viability, T/C [13]: 82.5%; viability, T/C [14]: 78.9%; viability, T/C [15]: 51.1%; viability, T/C [16]: 65.7%; viability, T/C [17]: 63.2%; viability, T/C [18]: 52.2%; viability, T/C [19]: 79.8%; viability, T/C [20]: 52.5%; viability, T/C [21]: 61.8%; viability, T/C [22]: 60.4%; viability, T/C [23]: 65%; viability, T/C [24]: 46.6%; viability, T/C [25]: 37.6%; viability, T/C [26]: 51.7%; viability, T/C [27]: 47.2%; viability, T/C [28]: 33.4%; viability, T/C [29]: 47%; viability, T/C [30]: 30.4%; viability, T/C [31]: 22.1%; viability, T/C [32]: 29.2%; viability, T/C [33]: 41.9%; viability, T/C [34]: 31.3%; viability, T/C [35]: 29.9%; viability, T/C [36]: 0.83%

Question: CC(=O)O[C@H]1C(=O)[C@@]2(C)[C@H]([C@H](OC(=O)c3ccccc3)[C@]3(O)C[C@H](OC(=O)[C@H](O)[C@@H](NC(=O)c4ccccc4)c4ccccc4)C(C)=C1C3(C)C)[C@]1(OC(C)=O)CO[C@@H]1C[C@@H]2O + Cc1cnc(CNC(=O)c2c(=O)c3ccc(N4CCCN(C)CC4)nc3n3c2sc2ccccc23)cn1 was tested. Which IC50 (second compound 0.0316 µM) did it give?
Answer: The IC50 was greater than 10 µM.

Question: What about the IC50 (second compound 0.1 µM) of the same compound?
Answer: Its IC50 is greater than 10 µM.

Question: And the IC50 (second compound 0.316 µM)?
Answer: Its IC50 is greater than 10 µM.

Question: What about the IC50 (second compound 1 µM) of the same compound?
Answer: Its IC50 is greater than 10 µM.

Question: What about the IC50 (second compound 3.16 µM) of the same compound?
Answer: Its IC50 is less than 0.0316 µM.

Question: What about the IC50 (second compound 10 µM) of the same compound?
Answer: Its IC50 is less than 0.0316 µM.

Question: And the viability, T/C [1]?
Answer: Its viability, T/C is 102%.

Question: What about the viability, T/C [2] of the same compound?
Answer: The viability, T/C was 84.2%.

Question: And the viability, T/C [3]?
Answer: Its viability, T/C is 85.5%.

Question: And the viability, T/C [4]?
Answer: The viability, T/C was 63.7%.

Question: What about the viability, T/C [5] of the same compound?
Answer: The viability, T/C was 65%.

Question: And the viability, T/C [6]?
Answer: The viability, T/C was 54.4%.

Question: What about the viability, T/C [7] of the same compound?
Answer: The viability, T/C was 90.5%.

Question: And the viability, T/C [8]?
Answer: The viability, T/C was 82.6%.

Question: What about the viability, T/C [9] of the same compound?
Answer: The viability, T/C was 91.5%.

Question: What about the viability, T/C [10] of the same compound?
Answer: The viability, T/C was 57.8%.

Question: What about the viability, T/C [11] of the same compound?
Answer: Its viability, T/C is 71.8%.

Question: What about the viability, T/C [12] of the same compound?
Answer: Its viability, T/C is 66.2%.

Question: What about the viability, T/C [13] of the same compound?
Answer: The viability, T/C was 80.4%.

Question: And the viability, T/C [14]?
Answer: The viability, T/C was 76.3%.

Question: And the viability, T/C [15]?
Answer: The viability, T/C was 62.3%.

Question: What about the viability, T/C [16] of the same compound?
Answer: The viability, T/C was 62%.

Question: And the viability, T/C [17]?
Answer: Its viability, T/C is 65.7%.

Question: And the viability, T/C [18]?
Answer: Its viability, T/C is 71.3%.

Question: And the viability, T/C [19]?
Answer: Its viability, T/C is 65.3%.

Question: And the viability, T/C [20]?
Answer: The viability, T/C was 67.5%.

Question: What about the viability, T/C [21] of the same compound?
Answer: Its viability, T/C is 65.9%.

Question: What about the viability, T/C [22] of the same compound?
Answer: The viability, T/C was 51.3%.

Question: And the viability, T/C [23]?
Answer: Its viability, T/C is 76.5%.

Question: And the viability, T/C [24]?
Answer: The viability, T/C was 59.5%.

Question: What about the viability, T/C [25] of the same compound?
Answer: Its viability, T/C is 40.7%.

Question: What about the viability, T/C [26] of the same compound?
Answer: Its viability, T/C is 43.6%.

Question: And the viability, T/C [27]?
Answer: The viability, T/C was 56.9%.

Question: And the viability, T/C [28]?
Answer: The viability, T/C was 44.3%.

Question: What about the viability, T/C [29] of the same compound?
Answer: The viability, T/C was 60.4%.

Question: And the viability, T/C [30]?
Answer: Its viability, T/C is 58%.

Question: What about the viability, T/C [31] of the same compound?
Answer: Its viability, T/C is 30.6%.

Question: And the viability, T/C [32]?
Answer: Its viability, T/C is 30%.

Question: What about the viability, T/C [33] of the same compound?
Answer: Its viability, T/C is 43.5%.

Question: What about the viability, T/C [34] of the same compound?
Answer: Its viability, T/C is 43.6%.

Question: And the viability, T/C [35]?
Answer: The viability, T/C was 44.2%.

Question: What about the viability, T/C [36] of the same compound?
Answer: The viability, T/C was 24.8%.

Question: For CCCS(=O)(=O)Nc1ccc(F)c(C(=O)c2c[nH]c3ncc(-c4ccc(Cl)cc4)cc23)c1F + Cc1cnc(CNC(=O)c2c(=O)c3ccc(N4CCCN(C)CC4)nc3n3c2sc2ccccc23)cn1, which IC50 (second compound 0.0316 µM) is on record?
Answer: Its IC50 is 8.41 µM.

Question: What about the IC50 (second compound 0.1 µM) of the same compound?
Answer: The IC50 was greater than 10 µM.

Question: What about the IC50 (second compound 0.316 µM) of the same compound?
Answer: Its IC50 is greater than 10 µM.

Question: What about the IC50 (second compound 1 µM) of the same compound?
Answer: The IC50 was 6.32 µM.

Question: And the IC50 (second compound 3.16 µM)?
Answer: The IC50 was 3.27 µM.

Question: And the IC50 (second compound 10 µM)?
Answer: Its IC50 is less than 0.0316 µM.

Question: What about the viability, T/C [1] of the same compound?
Answer: Its viability, T/C is 101%.

Question: What about the viability, T/C [2] of the same compound?
Answer: Its viability, T/C is 93.9%.

Question: And the viability, T/C [3]?
Answer: The viability, T/C was 107%.

Question: And the viability, T/C [4]?
Answer: Its viability, T/C is 96%.

Question: What about the viability, T/C [5] of the same compound?
Answer: Its viability, T/C is 110%.

Question: What about the viability, T/C [6] of the same compound?
Answer: The viability, T/C was 40.9%.

Question: What about the viability, T/C [7] of the same compound?
Answer: Its viability, T/C is 105%.

Question: And the viability, T/C [8]?
Answer: Its viability, T/C is 70.4%.

Question: What about the viability, T/C [9] of the same compound?
Answer: The viability, T/C was 78.9%.

Question: What about the viability, T/C [10] of the same compound?
Answer: Its viability, T/C is 82.4%.

Question: And the viability, T/C [11]?
Answer: Its viability, T/C is 98.1%.

Question: And the viability, T/C [12]?
Answer: Its viability, T/C is 52.8%.

Question: What about the viability, T/C [13] of the same compound?
Answer: Its viability, T/C is 85%.

Question: What about the viability, T/C [14] of the same compound?
Answer: The viability, T/C was 64.3%.

Question: What about the viability, T/C [15] of the same compound?
Answer: Its viability, T/C is 82.9%.

Question: And the viability, T/C [16]?
Answer: The viability, T/C was 91.3%.

Question: And the viability, T/C [17]?
Answer: Its viability, T/C is 101%.

Question: And the viability, T/C [18]?
Answer: Its viability, T/C is 55.1%.

Question: And the viability, T/C [19]?
Answer: The viability, T/C was 64.3%.

Question: And the viability, T/C [20]?
Answer: The viability, T/C was 76.5%.

Question: What about the viability, T/C [21] of the same compound?
Answer: Its viability, T/C is 74.1%.

Question: And the viability, T/C [22]?
Answer: The viability, T/C was 67.3%.

Question: What about the viability, T/C [23] of the same compound?
Answer: Its viability, T/C is 96.4%.

Question: And the viability, T/C [24]?
Answer: Its viability, T/C is 33%.

Question: What about the viability, T/C [25] of the same compound?
Answer: The viability, T/C was 43.9%.

Question: And the viability, T/C [26]?
Answer: The viability, T/C was 42.7%.

Question: And the viability, T/C [27]?
Answer: Its viability, T/C is 55.2%.

Question: And the viability, T/C [28]?
Answer: Its viability, T/C is 63.4%.

Question: What about the viability, T/C [29] of the same compound?
Answer: Its viability, T/C is 52.7%.

Question: What about the viability, T/C [30] of the same compound?
Answer: The viability, T/C was 0.43%.

Question: And the viability, T/C [31]?
Answer: The viability, T/C was 32.7%.

Question: What about the viability, T/C [32] of the same compound?
Answer: The viability, T/C was 34.5%.

Question: What about the viability, T/C [33] of the same compound?
Answer: Its viability, T/C is 38.7%.

Question: What about the viability, T/C [34] of the same compound?
Answer: The viability, T/C was 34.6%.

Question: And the viability, T/C [35]?
Answer: Its viability, T/C is 22.8%.

Question: And the viability, T/C [36]?
Answer: The viability, T/C was 0.26%.
